In publication PMC9385719, “Cryo-EM structures of the channelrhodopsin ChRmine in lipid nanodiscs” (Nature Communications, 2022):

Target: T1, ChRmine (Rhodomonas lens, UniProt Z9FJ57BNO3)
T1 construct: residues 1-309 of R. lens cation channelrhodopsin 1; C-terminal PreScission site-linker-sfGFP-7xHis, cleaved; expressed in Sf9; no N-terminal tag, Met1 removed, Ala2 acetylated; residues 2-285 modeled; homotrimer in MSP1E3D1 nanodiscs
T1 sequence (Z9FJ57BNO3 2-309): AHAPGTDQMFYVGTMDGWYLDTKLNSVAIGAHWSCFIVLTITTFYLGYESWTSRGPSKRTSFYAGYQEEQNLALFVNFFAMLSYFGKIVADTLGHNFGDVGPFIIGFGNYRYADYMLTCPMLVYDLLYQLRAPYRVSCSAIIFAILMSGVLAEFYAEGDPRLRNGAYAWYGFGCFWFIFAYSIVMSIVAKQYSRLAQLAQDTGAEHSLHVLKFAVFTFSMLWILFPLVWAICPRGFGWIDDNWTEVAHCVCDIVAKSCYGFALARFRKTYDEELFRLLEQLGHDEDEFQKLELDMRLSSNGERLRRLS
Assay: cryo-EM structure, […] Å, lipid nanodisc
Type: binding
Settings: covalent; Schiff base to K257; MSP1E3D1 nanodisc with DOPE/POPS/POPC, pH 7.5; 5 µM all-trans retinal added to expression culture; small and large nanodisc forms

`CC1=C(/C=C/C(C)=C/C=C/C(C)=C/C=O)C(C)(C)CCC1` [all-trans retinal] was tested. Which “cryo-EM structure, 2.7 Å, lipid nanodisc” value did it give?
The value was “(K257) on TM7 is covalently linked to a molecule of all-trans retinal through a Schiff base”.
